These results are taken from patent publication US20020115661A1, “Method for treating chronic obstructive pulmonary disease” (priority 2000, published 2002).

One series concerns the target T1, ETA receptor (Oryctolagus cuniculus, UniProt A5A8K3).
T1 sequence (A5A8K3 21-427): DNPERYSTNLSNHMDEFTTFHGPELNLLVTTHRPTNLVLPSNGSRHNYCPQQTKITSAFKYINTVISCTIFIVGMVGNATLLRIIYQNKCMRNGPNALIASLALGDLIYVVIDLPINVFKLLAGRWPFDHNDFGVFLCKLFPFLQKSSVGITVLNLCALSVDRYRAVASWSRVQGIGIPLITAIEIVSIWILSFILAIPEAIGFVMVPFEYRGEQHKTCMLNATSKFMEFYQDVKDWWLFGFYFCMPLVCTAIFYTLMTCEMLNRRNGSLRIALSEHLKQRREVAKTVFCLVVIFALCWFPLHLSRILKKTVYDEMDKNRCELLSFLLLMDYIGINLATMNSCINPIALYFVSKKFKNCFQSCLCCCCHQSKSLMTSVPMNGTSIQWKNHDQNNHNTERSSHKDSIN
Nature of the series: ET-1 induced contraction in isolated rabbit femoral artery. As for the experimental part:
In rabbit femoral artery vasculature, the receptor responsible for mediating the contractile activity of ET-1 appears to be predominantly the ETA receptor subtype, whereas in the rabbit pulmonary artery the contractile activity of ET-1 appears to be mediated by both ETA and ETB receptors.
In rabbit femoral and pulmonary arteries, ET-1 produced concentration-dependent increases in contractile tension starting at 1 nM.

The subject of series [1] is chronic hypoxia-induced pulmonary hypertension and RV hypertrophy. Briefly: Pulmonary hypertension and right ventricular hypertrophy in rats exposed to chronic hypoxia. The class given is in vivo, rat. The conditions noted are these: for average MPAP: hypoxic rats, days 10-20 of hypoxia. From the text:
Rats were exposed to hypoxia for an additional 10 days during treatment (20 days total). A separate group of age-matched rats treated with diet alone (20 days) and no exposure to hypoxia served as normoxic controls. Blood samples, pulmonary artery pressures, and cardiac right and left ventricles were collected at the end of the 20-day protocol.
Rats exposed to 20 days of hypoxia had MPAP of 43±2 mm Hg which averaged 30 mm Hg higher than normal (13±0 mm Hg).
Heparinized plasma samples were collected approximately 1 hour before MPAP was measured.
The right ventricular hypertrophic response to hypoxia was estimated by comparing the ratio of right ventricular free wall weight to left ventricle plus septum weight (RV/LV+S) between hypoxic and normoxic control groups. Using this index, rats exposed to hypoxia had right ventricular free walls that were more than twice control (0.57±0.03 versus 0.24±0.1).

The subject of a further series is healthy subjects. Briefly: Tolerance and safety in Phase 1 studies in healthy subjects. The class given is in vivo, human.
Series [2] is described as follows: CI-1034 plasma concentration after oral dose in rats. The format is in vivo. To be noted: rat, 24 hours after 30 mg/kg oral dose. An excerpt:
Vehicle-treated rats responded to the bET-1 challenge with peak increases in mean arterial pressure (MAP) of 58±2 mm Hg (N=7); baseline MAP was 82±5 mm Hg.

`CCc1cc(C2=C(C(=O)[O-])N(c3ccccc3C(F)(F)F)S(=O)(=O)c3ccccc32)cc2c1OCO2.[K+]` [CI-1034, 4-(7-Ethyl-1,3-benzodioxol-5-yl)-2-[2-(trifluoromethyl)phenyl]-2H-1 ,2-benzothiazine-3-carboxylic acid 1,1-dioxide monopotassium salt]: the “potency at blocking ETA versus ETB receptor signaling” value on ETA receptor (isolated rabbit vasculature, femoral versus pulmonary artery KB) was 389 fold. At ETA receptor (rabbit femoral artery), the “effect on ET-1 induced maximal contraction” value is “not affected”. The Schild regression slope on ETA receptor (rabbit femoral artery, r=0.99) stood at 0.88. Moreover, in series [1] (Rattus norvegicus, simple Emax model, chronic hypoxia, read-out: plasma concentration predicted to produce half-maximal effect), the EC50 was 0.32 ± 0.25 µg/mL. Besides, the “average MPAP” value in series [1] (25 mg/kg/day in diet) stood at 37±2 mm Hg; in series [1] (50 mg/kg/day in diet), 33±0 mm Hg; in series [1] (100 mg/kg/day in diet), 29±2 mm Hg. For the same compound, the “predicted maximal antihypertensive effect” value in series [1] (simple Emax model, chronic hypoxia) is on record as 60%±18%. Further, in the series with healthy subjects, the QTc intervals result is “No prolonged QTc intervals”. Besides, in the series with healthy subjects, the “most frequent adverse events” value is “headache, somnolence, nausea, and dyspepsia”. In addition, in the series with healthy subjects, the serious adverse events result is recorded as “no treatment-related serious adverse events”. Moreover, the “changes in C-reactive protein” value in the series on healthy subjects (Study 1034-001) is listed as “no significant changes”. In addition, the tolerance result is recorded as “well-tolerated” in the series on healthy subjects (single 400 mg dose with single 2-mg dose of midazolam syrup, Study 1034-005); “well-tolerated” with healthy subjects (single 150-mg doses with or without a high-fat breakfast, Study 1034-004); “well-tolerated” in the series with healthy subjects (single doses up to 400 mg, Study 1034-001). Further, the laboratory abnormalities entry in the series with healthy subjects (sporadic and transient) is reported as “unrelated to CI-1034 administration”. The “intensity of adverse reactions” value in the series on healthy subjects (transient) was “mild or moderate”. The compound further came in with a concentration at 24 h in series [2] of 160 ± 10 ng/mL.
